From ChEMBL document CHEMBL3779794, “Efficient synthesis and activity of beneficial intestinal flora of two lactulose-derived oligosaccharides” (Eur J Med Chem, 2016)
The source made the active and inactive calls. The rule behind the calls is not given here.

Test system: Lactobacillus acidophilus
Assay: Prebiotic activity in Lactobacillus acidophilus in simulated intestinal fluid after 1 to 3 hrs
Format: functional

SMILES	Activity
OC[C@H]1O[C@@H](O[C@H]2[C@H](O)[C@H](O)CO[C@]2(O)CO)[C@H](O)[C@@H](O)[C@H]1O	Active
OC[C@H]1O[C@@H](O[C@@H]2[C@H](O)CO[C@](O)(CO)[C@H]2O)[C@H](O)[C@@H](O)[C@H]1O	Active
